The source made the active and inactive calls. How the calls were made is not given here.
Tested on: GENE-TOX genotoxicity assays, various organisms and cells
Test: GENE-TOX mutagenicity studies
Details: for call: Assay Type: In vivo carcinogenicity studies
Source text: GENE-TOX provides genetic toxicology (mutagenicity) test data from expert peer review of open scientific literature for more than 3,000 chemicals from the United States Environmental Protection Agency (EPA). GENE-TOX was established to select assay systems for evaluation, review data in the scientific literature, and recommend proper testing protocols and evaluation procedures for these systems.
GENE-TOX covers the years 1991 - 1998. It is no longer updated.
This is an archive assay for GENE-TOX mutagenicity studies.

[1] = Species/Cell Type: Human lymphocytes, Assay Type: Sister-chromatid exchange (SCE) in vitro, Assay Code: SCLT, Evaluation Type: Evaluation B (Post-1980)
[2] = Species/Cell Type: Human, Assay Type: Sister-chromatid exchange (SCE) in vitro, Assay Code: SC1T, Evaluation Type: Evaluation B (Post-1980)
[3] = Species/Cell Type: Human, Assay Type: Sister-chromatid exchange (SCE) in vitro, Assay Code: SC1+D, Dose Response: With dose response, Evaluation Type: Evaluation B (Post-1980)
[4] = Species/Cell Type: Mammalian polychromatic erythrocytes, Assay Type: Micronucleus test, chromosome aberrations, Assay Code: MNTT, Evaluation Type: Evaluation B (Post-1980)
[5] = Species/Cell Type: Syrian hamster embryo (SA7/SHE) cells, Assay Type: Cell transformation, viral enhanced, Assay Code: CT7-, Evaluation Type: Evaluation A (Pre-1980)
[6] = Species/Cell Type: Salmonella typhimurium, Assay Type: Forward and reverse gene mutation, host-mediated assay, Assay Code: HMA-, Evaluation Type: Evaluation A (Pre-1980)
[7] = Species/Cell Type: Mammalian polychromatic erythrocytes, Assay Type: Micronucleus test, chromosome aberrations, Assay Code: MNT+, Evaluation Type: Evaluation B (Post-1980)
[8] = Species/Cell Type: Nonhuman, Assay Code: CCG+, Evaluation Type: Evaluation A (Pre-1980)
[9] = Species/Cell Type: Nonhuman, Assay Type: Sister-chromatid exchange (SCE) in vitro, Assay Code: SC2+D, Dose Response: With dose response, Evaluation Type: Evaluation B (Post-1980)
[10] = Species/Cell Type: Nonhuman, Assay Type: Sister-chromatid exchange (SCE) in vitro, Assay Code: SC2T, Evaluation Type: Evaluation B (Post-1980)
[11] = Species/Cell Type: Salmonella typhimurium (one or more of the five standard strains: TA98, TA100, TA1535, TA1537, and TA1538), Assay Type: Histidine reverse gene mutation, Ames assay, Assay Code: SALT, Evaluation Type: Evaluation A (Pre-1980)
[12] = Species/Cell Type: Rodents, Sex: Male, Assay Type: Dominant lethal test, Assay Code: DLT-, Evaluation Type: Evaluation A (Pre-1980)
[13] = Species/Cell Type: Salmonella typhimurium (one or more of the five standard strains: TA98, TA100, TA1535, TA1537, and TA1538), Assay Type: Histidine reverse gene mutation, Ames assay, Assay Code: SAL+*, Activation: With metabolic activation, Evaluation Type: Evaluation A (Pre-1980)
[14] = Species/Cell Type: Drosophila melanogaster, Assay Type: Sex-linked recessive lethal gene mutation, Assay Code: SRL+, Evaluation Type: Evaluation A (Pre-1980)

Cc1ncc([N+](=O)[O-])n1CC(=O)O
mutagenic call [1]: no conclusion
mutagenic call [2]: no conclusion

CCCN(CCCC(=O)O)N=O
mutagenic call (Species/Cell Type: Salmonella typhimurium (one or more of the five standard strains: TA98, TA100, TA1535, TA1537, and TA1538), Assay Type: Histidine reverse gene mutation, Ames assay, Assay Code: SAL+, Evaluation Type: Evaluation A (Pre-1980)): active; positive

CCOC(=O)NC(=S)Nc1ccccc1NC(=S)NC(=O)OCC
mutagenic call (Species/Cell Type: Aspergillus nidulans, Assay Type: Aneuploidy, chromosome aberrations, Assay Code: ASN+, Evaluation Type: Evaluation A (Pre-1980)): active; positive
mutagenic call (Species/Cell Type: Aspergillus nidulans, Assay Type: Mitotic recombination, Assay Code: ASGT, Evaluation Type: Evaluation A (Pre-1980)): no conclusion

O=c1cc(-c2ccccc2)oc2c1ccc1ccccc12
mutagenic call (Species/Cell Type: Human lymphocytes, Assay Type: Sister-chromatid exchange (SCE) in vitro, Assay Code: SCL+D, Dose Response: With dose response, Evaluation Type: Evaluation B (Post-1980)): active; positive
mutagenic call [3]: active; positive
mutagenic call (Species/Cell Type: Human, Assay Type: Sister-chromatid exchange (SCE) in vitro, Assay Code: SC1T, Evaluation Type: Evaluation A (Pre-1980)): no conclusion
mutagenic call [4]: no conclusion
mutagenic call [5]: inactive; negative

Oc1c(Cl)c(Cl)c(Cl)c(Cl)c1Cl
mutagenic call (Species/Cell Type: Bacillus subtilis (H17 vs M45), Assay Type: Rec-assay, spot test, DNA effects (bacterial DNA repair), Assay Code: REW+, Evaluation Type: Evaluation A (Pre-1980)): active; positive
mutagenic call (Species/Cell Type: Drosophila melanogaster, Assay Type: Sex-linked recessive lethal gene mutation, Assay Code: SRLT, Evaluation Type: Evaluation A (Pre-1980)): no conclusion
mutagenic call (Species/Cell Type: Mouse, Sex: Female, Assay Type: Spot test, gene mutation, Assay Code: MST-, Evaluation Type: Evaluation A (Pre-1980)): inactive; negative
mutagenic call (Species/Cell Type: Saccharomyces cerevisiae, Assay Type: Forward gene mutation, Assay Code: YEF+, Evaluation Type: Evaluation A (Pre-1980)): active; positive
mutagenic call (Species/Cell Type: Saccharomyces cerevisiae, Assay Type: Mitotic recombination or gene conversion, Assay Code: YEC+, Evaluation Type: Evaluation A (Pre-1980)): active; positive
mutagenic call (Species/Cell Type: Saccharomyces cerevisiae, Assay Type: Mitotic recombination or gene conversion, Assay Code: YEH-, Evaluation Type: Evaluation A (Pre-1980)): inactive; negative
mutagenic call (Species/Cell Type: Salmonella typhimurium (one or more of the five standard strains: TA98, TA100, TA1535, TA1537, and TA1538), Assay Type: Histidine reverse gene mutation, Ames assay, Assay Code: SAL-, Evaluation Type: Evaluation A (Pre-1980)): inactive; negative
mutagenic call [6]: inactive; negative
mutagenic call (Species/Cell Type: Syrian hamster embryo (SA7/SHE) cells, Assay Type: Cell transformation, viral enhanced, Assay Code: CT7+, Evaluation Type: Evaluation A (Pre-1980)): active; positive

Clc1ccc(Cl)c(Cl)c1
mutagenic call [7]: active; positive

O=C(OOC(=O)c1ccccc1)c1ccccc1
mutagenic call (Species/Cell Type: Escherichia coli polA (W3119 vs P3478), Assay Type: Rec-assay, DNA effects (bacterial DNA repair), Assay Code: RE1T, Evaluation Type: Evaluation A (Pre-1980)): no conclusion

COC(=O)COc1ccc(Br)cc1CSC(=N)N
mutagenic call (Species/Cell Type: Saccharomyces cerevisiae, Assay Type: Reverse gene mutation, Assay Code: YERT, Evaluation Type: Evaluation A (Pre-1980)): no conclusion

CNc1ccc(N(CCO)CCO)cc1[N+](=O)[O-]
mutagenic call [4]: no conclusion
call [8]: active; positive
mutagenic call [9]: active; positive

c1ccc2c(c1)ccc1[nH]c3ccc4ccccc4c3c12
call [8]: active; positive

CC(C)C[C@H](NC(=O)N[C@H](C(=O)N[C@@H](CCC(N)=O)C(=O)N[C@@H](C)C=O)[C@@H]1CCNC(N)=N1)C(=O)O
mutagenic call [2]: no conclusion
mutagenic call [10]: no conclusion

CCCCCCC(=O)O[C@H]1CC[C@H]2[C@@H]3CCC4=CC(=O)CC[C@]4(C)[C@H]3CC[C@]12C
mutagenic call (Species/Cell Type: Human, Sex: Male, Assay Type: Sperm morphology, Assay Code: SPH+, Evaluation Type: Evaluation A (Pre-1980)): active; positive
call [8]: active; positive

CN(C)CCC(=O)c1ccc2c(c1)OCO2
mutagenic call [6]: inactive; negative

NCCCCNCCCN
mutagenic call [11]: no conclusion

[Be+2]
mutagenic call (Species/Cell Type: Bacillus subtilis (H17 vs M45), Assay Type: Rec-assay, spot test, DNA effects (bacterial DNA repair), Assay Code: REW-, Evaluation Type: Evaluation A (Pre-1980)): inactive; negative

c1csc(-c2ccc(-c3cccs3)s2)c1
mutagenic call [10]: no conclusion

CCCCCc1cc(O)c2c(c1)OC(C)(C)[C@@H]1CCC(C)=C[C@@H]21
mutagenic call (Species/Cell Type: Fischer rat embryo (RLV/1706) cells, Assay Type: Cell transformation, viral enhanced, Assay Code: CTR+, Evaluation Type: Evaluation A (Pre-1980)): active; positive
mutagenic call (Species/Cell Type: Human diploid fibroblasts, Assay Type: Unscheduled DNA synthesis (UDS) in vitro, DNA effects, Assay Code: UDH-, Evaluation Type: Evaluation A (Pre-1980)): inactive; negative
mutagenic call (Species/Cell Type: Human lymphocytes or leukocytes, Assay Type: Chromosome aberrations in vivo, Assay Code: CY8-, Evaluation Type: Evaluation A (Pre-1980)): inactive; negative
mutagenic call (Species/Cell Type: Human lymphocytes, Assay Type: Sister-chromatid exchange (SCE) in vivo, Assay Code: SCY+, Evaluation Type: Evaluation B (Post-1980)): active; positive
mutagenic call (Species/Cell Type: Human, Assay Type: Sister-chromatid exchange (SCE) in vitro, Assay Code: SC1-, Evaluation Type: Evaluation A (Pre-1980)): inactive; negative
mutagenic call [7]: active; positive
mutagenic call (Species/Cell Type: Mammalian polychromatic erythrocytes, Assay Type: Micronucleus test, chromosome aberrations, Assay Code: MNTT, Evaluation Type: Evaluation A (Pre-1980)): no conclusion
mutagenic call (Species/Cell Type: Mouse, Sex: Male, Assay Type: Sperm morphology, Assay Code: SPI+, Evaluation Type: Evaluation A (Pre-1980)): active; positive

C=CC1CO1 (stereo not given)
mutagenic call (Species/Cell Type: Nonhuman, Assay Type: Sister-chromatid exchange (SCE) in vivo, Assay Code: SC3+D, Dose Response: With dose response, Evaluation Type: Evaluation B (Post-1980)): active; positive

N[C@@H](CCC(=O)N[C@@H](CS)C(=O)NCC(=O)O)C(=O)O
mutagenic call [1]: no conclusion
mutagenic call [2]: no conclusion
mutagenic call [9]: active; positive

O=C[C@H](O)[C@@H](O)[C@H](O)[C@H](S)CO
mutagenic call [12]: inactive; negative

O=NN(CCO)CCCCO
mutagenic call [13]: active; positive

O[As](O)O
mutagenic call (Species/Cell Type: Escherichia coli WP2, Assay Type: Tryptophan reverse gene mutation, Assay Code: WP2-, Evaluation Type: Evaluation A (Pre-1980)): inactive; negative
mutagenic call (Species/Cell Type: Human lymphocytes or leukocytes, Assay Type: Chromosome aberrations in vitro, Assay Code: CY7+, Evaluation Type: Evaluation A (Pre-1980)): active; positive

C/C=C(/C)C(=O)O[C@@H]1CCN2CC=C(COC(=O)[C@@](O)([C@H](C)O)C(C)(C)O)[C@H]12
mutagenic call [14]: active; positive

CN(CCO)c1nc(Nc2ccccc2)nc(Nc2ccc(/C=C/c3ccc(Nc4nc(Nc5ccccc5)nc(N(C)CCO)n4)cc3S(=O)(=O)O)c(S(=O)(=O)O)c2)n1
mutagenic call [12]: inactive; negative
mutagenic call [11]: no conclusion

COC(C)C(O)(C(=O)OCC1=CC[N+]2([O-])CC[C@H](O)[C@H]12)C(C)C (stereo not given in full)
mutagenic call [14]: active; positive

CCc1cccc(CC)c1N(COC)C(=O)CCl
mutagenic call (Species/Cell Type: Saccharomyces cerevisiae, Assay Type: Mitotic recombination or gene conversion, Assay Code: YEC+*, Activation: With metabolic activation, Evaluation Type: Evaluation A (Pre-1980)): active; positive

O=C(O)c1ccc(C(=O)O)cc1
mutagenic call [5]: inactive; negative

CC1=C(/C=C/C(C)=C/C=C/C(C)=C\C(=O)O)C(C)(C)CCC1
mutagenic call [3]: active; positive

CC(=O)Oc1ccc2c3c1O[C@H]1[C@@H](OC(C)=O)C=C[C@H]4[C@@H](C2)N(C)CC[C@@]341
mutagenic call (Species/Cell Type: Nonhuman, Assay Type: Sister-chromatid exchange (SCE) in vivo, Assay Code: SC3+, Evaluation Type: Evaluation B (Post-1980)): active; positive

FC(F)OC(Cl)C(F)(F)F (stereo not given)
mutagenic call (Species/Cell Type: Mouse, Sex: Male, Assay Type: Sperm morphology, Assay Code: SPI-, Evaluation Type: Evaluation A (Pre-1980)): inactive; negative
mutagenic call [10]: no conclusion
mutagenic call [11]: no conclusion

O[C@@H]1C=Cc2c(ccc3cc4c(ccc5ccccc54)cc23)[C@H]1O
call (Species/Cell Type: Nonhuman, Assay Code: CCG+L, Evaluation Type: Evaluation A (Pre-1980)): active; positive
mutagenic call [9]: active; positive
mutagenic call [13]: active; positive

CCN(CC)CC[NH+]([O-])c1ccc(C)c2sc3cc(Cl)ccc3c(=O)c12 (stereo not given)
mutagenic call [13]: active; positive

— PubChem BioAssay AID1259408 (Genetic Toxicology Data Bank (GENE-TOX), 2018)
